Measurements as given in patent US9701664B2, “Fused 1,4-dihydrodioxin derivatives as inhibitors of heat shock transcription factor 1” (Cancer Research Technology Limited, priority 2013, dated 2017).
Like-named read-outs stand apart in the source and are kept apart here.

Legend:
HSP72 in U2OS cells = assay: Cell-based ELISA (Cellisa) assay, U2OS cells: inhibition of 17-AAG-induced HSP72; settings: U2OS cells (Examples 1-168)
Experimental: U2OS cells (5-8×10^4 cells/mL) or SK-OV-3 cells (5-8×10^4 cells/mL) were seeded into 96-well plates and incubated at 37° C. for 48 h. Compounds were then added at a range of concentrations and incubated for 1 h before addition of 17-AAG (250 nM). Cells were then incubated for 18 h. The medium was removed washed 2× with PBS and cells were then fixed with fixing solution (4% paraformaldehyde, 0.3% TritonX-100 in PBS) for 30 min at 4° C. The plates were then washed 2× with PBS before blocking with 5% milk for 30 min at 37° C. After washing the plates 4× with 0.1% Tween-20/deionised water, HSP72 antibody (SPA-810, Enzo Life) was added for 1.5 h at 37° C. Following 4× washes, the plates were incubated with europium-labelled anti-mouse antibody (0.6 ug/ml) in Delfia assay buffer (Perkin Elmer) for 1 h at 37° C. After washing the plates, Delfia enhancement solution was added, shaken for 10 min before reading in the Envision plate reader (Perkin-Elmer) with excitation at 340 nm and emission at 615 nm. The plates were washed again before protein determination using the bicinchoninic acid assay (BCA assay, Pierce Biotechnology). The europium counts were normalised for the amount of protein in each well. The 50% inhibitory concentration value of the compound was then calculated.

U2OS cells = assay: Titre Blue cell viability assay, U2OS cells; assay type: cell-based

Row | Compound | IC50 (HSP72 in U2OS cells; Homo sapiens) | IC50 (U2OS cells; Homo sapiens, U2OS) | IC50 (HSP72 in U2OS cells) | IC50 (U2OS cells)
1 | CNc1ccc2cc(C(=O)Nc3cc(NC(=O)c4ccc5c(c4)OCCO5)ccc3C)ccc2n1 [Example 79, N-(5-(2,3-dihydrobenzo[b][1,4]dioxine-6-carboxamido)-2-methylphenyl)-2-(methylamino)quinoline-6-carboxamide] | 70 nM | 54 nM |  | 
2 | Cc1ccc(NC(=O)c2ccc3c(c2)OCCO3)cc1NC(=O)c1ccc2nc(N(C)CCN(C)C)ccc2c1 [Example 58, N-(5-(2,3-dihydrobenzo[b][1,4]dioxine-6-carboxamido)-2-methylphenyl)-2-((2-(dimethylamino)ethyl)(methyl)amino)quinoline-6-carboxamide] | 15 nM | 33 nM |  | 
3 | Cc1ccc(NC(=O)c2ccc3c(c2)OCCO3)cc1NC(=O)c1ccc2nc(O[C@@H]3CCN(C)C3)ccc2c1 [Example 49, (R)—N-(5-(2,3-dihydrobenzo[b][1,4]dioxine-6-carboxamido)-2-methylphenyl)-2-((1-methylpyrrolidin-3-yl)oxy)quinoline-6-carboxamide] | 2 nM | 8 nM |  | 
4 | Cc1ccc(NC(=O)c2ccc3c(c2)OCCO3)cc1NC(=O)c1ccc2cnccc2c1 [Example 46, N-(5-(2,3-dihydrobenzo[b][1,4]dioxine-6-carboxamido)-2-methylphenyl)isoquinoline-6-carboxamide] | 4 nM | 12 nM |  | 
5 | O=C(Nc1ccc(Cl)c(NC(=O)c2ccc3ncccc3c2)c1)c1ccc2c(c1)OCCO2 [Example 149, N-(2-chloro-5-(2,3-dihydrobenzo[b][1,4]dioxine-6-carboxamido)phenyl)quinoline-6-carboxamide] | 63 nM | 20 nM |  | 
6 | COc1cc(C(=O)Nc2cc(NC(=O)c3ccc4c(c3)OCCO4)ccc2C)cc2sc(N)nc12 [Example 95, 2-amino-N-(5-(2,3-dihydrobenzo[b][1,4]dioxine-6-carboxamido)-2-methylphenyl)-4-methoxybenzo[d]thiazole-6-carboxamide] | 89 nM | 156 nM |  | 
7 | Cc1ccc(NC(=O)c2ccc3c(c2)OCCO3)cc1NC(=O)c1ccc2occc2c1 [Example 17, N-(3-(benzofuran-5-carboxamido)-4-methylphenyl)-2,3-dihydrobenzo[b][1,4]dioxine-6-carboxamide] | 97 nM | 73 nM |  | 
8 | Cc1ccc(NC(=O)c2ccc3c(c2)OCCO3)cc1NC(=O)c1cnc2ccccc2c1 [Example 47, N-(5-(2,3-dihydrobenzo[b][1,4]dioxine-6-carboxamido)-2-methylphenyl)quinoline-3-carboxamide] | 4 nM | 12 nM |  | 
9 | Cc1ccc(NC(=O)c2ccc3c(c2)OCCO3)cc1NC(=O)c1ccc2c(c1)CCC(CN(C)C)N2 (stereo not shown) [Example 87, N-(5-(2,3-dihydrobenzo[b][1,4]dioxine-6-carboxamido)-2-methylphenyl)-2-((dimethylamino)methyl)-1,2,3,4-tetrahydroquinoline-6-carboxamide] | 608 nM | 260 nM |  | 
10 | Cc1ccc(NC(=O)c2ccc3c(c2)OCCO3)cc1NC(=O)c1ccc2nc(CN(C)C)ccc2c1 [Example 71, N-(5-(2,3-dihydrobenzo[b][1,4]dioxine-6-carboxamido)-2-methylphenyl)-2-((dimethylamino)methyl)quinoline-6-carboxamide] | 82 nM | 118 nM |  | 
11 | COCc1ccc2cc(C(=O)Nc3cc(NC(=O)c4ccc5c(c4)OCCO5)ccc3C)ccc2n1 [Example 137, N-(5-(2,3-dihydrobenzo[b][1,4]dioxine-6-carboxamido)-2-methylphenyl)-2-(methoxymethyl)quinoline-6-carboxamide] | 15 nM | 26 nM |  | 
12 | COc1c(C)cc(C(=O)Nc2cc(NC(=O)c3ccc4c(c3)OCCO4)ccc2C)cc1C [Example 42, N-(3-(4-methoxy-3,5-dimethylbenzamido)-4-methylphenyl)-2,3-dihydrobenzo[b][1,4]dioxine-6-carboxamide] | 546 nM | 665 nM |  | 
13 | Cc1ccc2cc(C(=O)Nc3cc(NC(=O)c4ccc5c(c4)OCCO5)ccc3CO)ccc2n1 [Example 167, N-(5-(2,3-dihydrobenzo[b][1,4]dioxine-6-carboxamido)-2-(hydroxymethyl)phenyl)-2-methylquinoline-6-carboxamide] | 176 nM | 86 nM |  | 
14 | Cc1ccc(NC(=O)c2ccc3c(c2)OCCO3)cc1NC(=O)c1cnc2[nH]ccc2c1 [Example 100, N-(5-(2,3-dihydrobenzo[b][1,4]dioxine-6-carboxamido)-2-methylphenyl)-1H-pyrrolo[2,3-b]pyridine-5-carboxamide] | 43 nM | 54 nM |  | 
15 | Cc1ccc(NC(=O)c2ccc3c(c2)OCCO3)cc1NC(=O)c1ccc2nccnc2c1 [Example 36, N-(5-(2,3-dihydrobenzo[b][1,4]dioxine-6-carboxamido)-2-methylphenyl)quinoxaline-6-carboxamide] | 1150 nM | 567 nM |  | 
16 | Cc1ccc(NC(=O)c2ccc3c(c2)OCCO3)cc1NC(=O)c1ccc2nc(OCC(C)N3CCCC3)ccc2c1 (stereo not shown) [Example 68, N-(5-(2,3-dihydrobenzo[b][1,4]dioxine-6-carboxamido)-2-methylphenyl)-2-(2-(pyrrolidin-1-yl)propoxy)quinoline-6-carboxamide] | 41 nM | 12 nM |  | 
17 | Cc1ccc(NC(=O)c2ccc3c(c2)OCCO3)cc1NC(=O)c1ccc2c(c1)CC(C)O2 (stereo not shown) [Example 14, N-(4-methyl-3-(2-methyl-2,3-dihydrobenzofuran-5-carboxamido)phenyl)-2,3-dihydrobenzo[b][1,4]dioxine-6-carboxamide] | 81 nM | 94 nM |  | 
18 | Cc1ccc(NC(=O)c2ccc3c(c2)OCCO3)cc1NC(=O)c1ccc2nc(OC3CCN(C)CC3)ccc2c1 [Example 50, N-(5-(2,3-dihydrobenzo[b][1,4]dioxine-6-carboxamido)-2-methylphenyl)-2-((1-methylpiperidin-4-yl)oxy)quinoline-6-carboxamide] | 3 nM | 10 nM |  | 
19 | Cc1ccc(NC(=O)c2ccc3c(c2)OCCO3)cc1NC(=O)c1cnc2cccc(NCCN3CCCC3)c2c1 [Example 148, N-(5-(2,3-dihydrobenzo[b][1,4]dioxine-6-carboxamido)-2-methylphenyl)-5-((2-(pyrrolidin-1-yl)ethyl)amino)quinoline-3-carboxamide] | 88 nM | 104 nM |  | 
20 | Cc1ccc(NC(=O)c2ccc3c(c2)OCCO3)cc1NC(=O)c1ccc2c(ccn2C)c1 [Example 16, N-(5-(2,3-dihydrobenzo[b][1,4]dioxine-6-carboxamido)-2-methylphenyl)-1-methyl-1H-indole-5-carboxamide] | 94 nM | 31 nM |  | 
21 | COc1ccc(C(=O)Nc2cc(NC(=O)c3ccc4c(c3)OCCO4)ccc2C)cc1Cl [Example 28, N-(3-(3-chloro-4-methoxybenzamido)-4-methylphenyl)-2,3-dihydrobenzo[b][1,4]dioxine-6-carboxamide] | 416 nM | 415 nM |  | 
22 | Cc1ccc(NC(=O)c2ccc3c(c2)OCCO3)cc1NC(=O)c1cnc2c(c1)CCCC2 [Example 141, N-(5-(2,3-dihydrobenzo[b][1,4]dioxine-6-carboxamido)-2-methylphenyl)-5,6,7,8-tetrahydroquinoline-3-carboxamide] | 32 nM | 44 nM |  | 
23 | C=CCc1cccc2ncc(C(=O)Nc3cc(NC(=O)c4ccc5c(c4)OCCO5)ccc3C)cc12 [Example 161, 5-allyl-N-(5-(2,3-dihydrobenzo[b][1,4]dioxine-6-carboxamido)-2-methylphenyl)quinoline-3-carboxamide] | 911 nM | 557 nM |  | 
24 | Cc1ccc(NC(=O)c2ccc3c(c2)OCCO3)cc1NC(=O)c1ccc2nc(CCO)ccc2c1 [Example 75, N-(5-(2,3-dihydrobenzo[b][1,4]dioxine-6-carboxamido)-2-methylphenyl)-2-(2-hydroxyethyl)quinoline-6-carboxamide] | 17 nM | 56 nM |  | 
25 | N-(5-(2,3-dihydrobenzo[b][1,4]dioxine-6-carboxamido)-2-methylphenyl)-34(2-methoxyethyl)amino)-2-(2-(pyrrolidin-1-yl)ethoxy)quinoline-6-carboxamide [Example 150] |  |  | 98 nM | 86 nM
26 | Cc1ccc(NC(=O)c2ccc3c(c2)OCCO3)cc1NC(=O)c1ccc2nc(COC(C)C)ccc2c1 [Example 145, N-(5-(2,3-dihydrobenzo[b][1,4]dioxine-6-carboxamido)-2-methylphenyl)-2-(isopropoxymethyl)quinoline-6-carboxamide] | 64 nM | 17 nM |  | 
27 | 2-(2-aminoethoxy)-N-(5-(2,3-dihydrobenzo[b][1,4]dioxine-6-carboxamido)-2-methyl)phenyl)quinoline-6-carboxamide [Example 89] |  |  | 13 nM | 15 nM
28 | Cc1ccc(NC(=O)c2ccc3c(c2)OCCO3)cc1NC(=O)c1ccc(OCc2cscn2)nc1 [Example 13, N-(5-(2,3-dihydrobenzo[b][1,4]dioxine-6-carboxamido)-2-methylphenyl)-6-(thiazol-4-ylmethoxy)nicotinamide] | 262 nM | 217 nM |  | 
29 | Cc1ccc(NC(=O)c2ccc3c(c2)OCCO3)cc1NC(=O)c1ccc2nc(OCCN3CCCCC3)ccc2c1 [Example 54, N-(5-(2,3-dihydrobenzo[b][1,4]dioxine-6-carboxamido)-2-methylphenyl)-2-(2-(piperidin-1-yl)ethoxy)quinoline-6-carboxamide] | 10 nM | 7 nM |  | 
